Assay results as given in article PMC5418314, “First-in-human phase I study of SOR-C13, a TRPV6 calcium channel inhibitor, in patients with advanced solid tumors” (Investigational New Drugs, 2017).
Like-named read-outs stand apart in the source and are kept apart here. Ends that are not written are not given here.

What was measured:
[1] = peptide degradation in rat plasma; format: in vitro ADME
[2] = half-life in the blood compartment, mice; format: in vivo
[3] = Phase I plasma pharmacokinetics; format: in vivo, human; conditions: plasma LC-MS; for AUC(0-t) / Cmax / Tmax: plasma
Description: Blood samples were taken on Days 1, 3, 8 and 10 of Cycle 1 to assess the pharmacokinetic (PK) profile of SOR-C13 at the various doses used. Plasma samples for the IV 20 min infusion were taken at pre-infusion, 5, 15 min after the start of infusion and post-infusion at 2, 5, 10 and 30 min and 1, 4 h. Plasma samples for SOR-C13 analysis for the 90 min infusion were taken pre-infusion, at 5, 15 and 45 min after the start of infusion, and at 2, 5, 10 and 30 min post-infusion. Since the infusion for the majority of patients, and further studies will be IV 90 min only PK data for this infusion time are presented. Validated liquid chromatography-mass spectrometry analysis provided the plasma concentration/time data.

[4] = Cohort 3: 1.375 mg/kg, N = 3, 90-min IV infusion, Cycle 1 Day 8

KEFLHPSKVDLPR [SOR-C13]
peptide degradation half-life [1]: about 1 h | half-life in the blood compartment [2]: < 5 min | time after start of infusion by which steady state was achieved ([3]; 90-min infusion): ≤ 15 min | Peak plasma concentration, Median ([3]; Cohort 3: 1.375 mg/kg, N = 3, 90-min IV infusion, Cycle 1 Day 1): 252.50 ng/mL | Peak plasma concentration, Mean (SD) [3, 4]: 251.03 (75.53) ng/mL | Time to peak plasma concentration, Median [3, 4]: 0.750 h | Time to peak plasma concentration, Median ([3]; Cohort 4: 2.75 mg/kg, N = 6, 90-min IV infusion, Cycle 1 Day 3): 0.750 h | Time to peak plasma concentration, Median ([3]; Cohort 5: 4.13 mg/kg, N = 3, 90-min IV infusion, Cycle 1 Day 10): 0.250 h | Time to peak plasma concentration, Median ([3]; Cohort 6: 6.2 mg/kg, N = 6, 90-min IV infusion, Cycle 1 Day 8): 0.750 h | half-life ([3]; human, iv, patients, 90-min infusion, read-out: elimination half-life (Thalf), estimated overall): < 5 min | AUC(0-t) ([3]; human, iv, 1.375 mg/kg, Cohort 3: 1.375 mg/kg, N = 3, 90-min IV infusion, Cycle 1 Day 1, read-out: AUCtau, Mean (SD)): 256 ng·h/mL | AUC(0-t) ([3]; human, iv, 1.375 mg/kg, Cohort 3: 1.375 mg/kg, N = 3, 90-min IV infusion, Cycle 1 Day 1, read-out: AUCtau, Median): 263 ng·h/mL | Cmax ([3]; human, iv, 1.375 mg/kg, Cohort 3: 1.375 mg/kg, N = 3, 90-min IV infusion, Cycle 1 Day 1, read-out: Peak plasma concentration, Mean (SD)): 244 ng/mL | Tmax ([3]; human, iv, 1.375 mg/kg, Cohort 3: 1.375 mg/kg, N = 3, 90-min IV infusion, Cycle 1 Day 1, read-out: Time to peak plasma concentration, Mean (SD)): 31.6 min | Tmax ([3]; human, iv, 1.375 mg/kg, Cohort 3: 1.375 mg/kg, N = 3, 90-min IV infusion, Cycle 1 Day 1, read-out: Time to peak plasma concentration, Median): 45 min | AUC(0-t) ([3]; human, iv, 1.375 mg/kg, Cohort 3: 1.375 mg/kg, N = 3, 90-min IV infusion, Cycle 1 Day 3, read-out: AUCtau, Mean (SD)): 148 ng·h/mL | AUC(0-t) ([3]; human, iv, 1.375 mg/kg, Cohort 3: 1.375 mg/kg, N = 3, 90-min IV infusion, Cycle 1 Day 3, read-out: AUCtau, Median): 168 ng·h/mL | Cmax ([3]; human, iv, 1.375 mg/kg, Cohort 3: 1.375 mg/kg, N = 3, 90-min IV infusion, Cycle 1 Day 3, read-out: Peak plasma concentration, Mean (SD)): 193 ng/mL | Cmax ([3]; human, iv, 1.375 mg/kg, Cohort 3: 1.375 mg/kg, N = 3, 90-min IV infusion, Cycle 1 Day 3, read-out: Peak plasma concentration, Median): 160 ng/mL | Tmax ([3]; human, iv, 1.375 mg/kg, Cohort 3: 1.375 mg/kg, N = 3, 90-min IV infusion, Cycle 1 Day 3, read-out: Time to peak plasma concentration, Mean (SD)): 11.6 min | Tmax ([3]; human, iv, 1.375 mg/kg, Cohort 3: 1.375 mg/kg, N = 3, 90-min IV infusion, Cycle 1 Day 3, read-out: Time to peak plasma concentration, Median): 15 min | AUC(0-t) ([3]; human, iv, 1.375 mg/kg, Cohort 3: 1.375 mg/kg, N = 3, 90-min IV infusion, Cycle 1 Day 8, read-out: AUCtau, Mean (SD)): 220 ng·h/mL | AUC(0-t) ([3]; human, iv, 1.375 mg/kg, Cohort 3: 1.375 mg/kg, N = 3, 90-min IV infusion, Cycle 1 Day 8, read-out: AUCtau, Median): 230 ng·h/mL | Cmax ([3]; human, iv, 1.375 mg/kg, Cohort 3: 1.375 mg/kg, N = 3, 90-min IV infusion, Cycle 1 Day 8, read-out: Peak plasma concentration, Median): 237 ng/mL | Tmax ([3]; human, iv, 1.375 mg/kg, Cohort 3: 1.375 mg/kg, N = 3, 90-min IV infusion, Cycle 1 Day 8, read-out: Time to peak plasma concentration, Mean (SD)): 47.2 min | AUC(0-t) ([3]; human, iv, 1.375 mg/kg, Cohort 3: 1.375 mg/kg, N = 3, 90-min IV infusion, Cycle 1 Day 10, read-out: AUCtau, Mean (SD)): 184 ng·h/mL | AUC(0-t) ([3]; human, iv, 1.375 mg/kg, Cohort 3: 1.375 mg/kg, N = 3, 90-min IV infusion, Cycle 1 Day 10, read-out: AUCtau, Median): 215 ng·h/mL | Cmax ([3]; human, iv, 1.375 mg/kg, Cohort 3: 1.375 mg/kg, N = 3, 90-min IV infusion, Cycle 1 Day 10, read-out: Peak plasma concentration, Mean (SD)): 224 ng/mL | Cmax ([3]; human, iv, 1.375 mg/kg, Cohort 3: 1.375 mg/kg, N = 3, 90-min IV infusion, Cycle 1 Day 10, read-out: Peak plasma concentration, Median): 181 ng/mL | Tmax ([3]; human, iv, 1.375 mg/kg, Cohort 3: 1.375 mg/kg, N = 3, 90-min IV infusion, Cycle 1 Day 10, read-out: Time to peak plasma concentration, Mean (SD)): 35 min | AUC(0-t) ([3]; human, iv, 2.75 mg/kg, Cohort 4: 2.75 mg/kg, N = 6, 90-min IV infusion, Cycle 1 Day 1, read-out: AUCtau, Mean (SD)): 435 ng·h/mL | AUC(0-t) ([3]; human, iv, 2.75 mg/kg, Cohort 4: 2.75 mg/kg, N = 6, 90-min IV infusion, Cycle 1 Day 1, read-out: AUCtau, Median): 103 ng·h/mL | Cmax ([3]; human, iv, 2.75 mg/kg, Cohort 4: 2.75 mg/kg, N = 6, 90-min IV infusion, Cycle 1 Day 1, read-out: Peak plasma concentration, Mean (SD)): 524 ng/mL | Cmax ([3]; human, iv, 2.75 mg/kg, Cohort 4: 2.75 mg/kg, N = 6, 90-min IV infusion, Cycle 1 Day 1, read-out: Peak plasma concentration, Median): 194 ng/mL | Tmax ([3]; human, iv, 2.75 mg/kg, Cohort 4: 2.75 mg/kg, N = 6, 90-min IV infusion, Cycle 1 Day 1, read-out: Time to peak plasma concentration, Mean (SD)): 39.9 min | Tmax ([3]; human, iv, 2.75 mg/kg, Cohort 4: 2.75 mg/kg, N = 6, 90-min IV infusion, Cycle 1 Day 1, read-out: Time to peak plasma concentration, Median): 45 min | AUC(0-t) ([3]; human, iv, 2.75 mg/kg, Cohort 4: 2.75 mg/kg, N = 6, 90-min IV infusion, Cycle 1 Day 3, read-out: AUCtau, Mean (SD)): 365 ng·h/mL | AUC(0-t) ([3]; human, iv, 2.75 mg/kg, Cohort 4: 2.75 mg/kg, N = 6, 90-min IV infusion, Cycle 1 Day 3, read-out: AUCtau, Median): 250 ng·h/mL | Cmax ([3]; human, iv, 2.75 mg/kg, Cohort 4: 2.75 mg/kg, N = 6, 90-min IV infusion, Cycle 1 Day 3, read-out: Peak plasma concentration, Mean (SD)): 374 ng/mL | Cmax ([3]; human, iv, 2.75 mg/kg, Cohort 4: 2.75 mg/kg, N = 6, 90-min IV infusion, Cycle 1 Day 3, read-out: Peak plasma concentration, Median): 265 ng/mL | Tmax ([3]; human, iv, 2.75 mg/kg, Cohort 4: 2.75 mg/kg, N = 6, 90-min IV infusion, Cycle 1 Day 3, read-out: Time to peak plasma concentration, Mean (SD)): 40.3 min | AUC(0-t) ([3]; human, iv, 2.75 mg/kg, Cohort 4: 2.75 mg/kg, N = 6, 90-min IV infusion, Cycle 1 Day 8, read-out: AUCtau, Mean (SD)): 215 ng·h/mL | AUC(0-t) ([3]; human, iv, 2.75 mg/kg, Cohort 4: 2.75 mg/kg, N = 6, 90-min IV infusion, Cycle 1 Day 8, read-out: AUCtau, Median): 247 ng·h/mL | Cmax ([3]; human, iv, 2.75 mg/kg, Cohort 4: 2.75 mg/kg, N = 6, 90-min IV infusion, Cycle 1 Day 8, read-out: Peak plasma concentration, Mean (SD)): 239 ng/mL | Cmax ([3]; human, iv, 2.75 mg/kg, Cohort 4: 2.75 mg/kg, N = 6, 90-min IV infusion, Cycle 1 Day 8, read-out: Peak plasma concentration, Median): 282 ng/mL | Tmax ([3]; human, iv, 2.75 mg/kg, Cohort 4: 2.75 mg/kg, N = 6, 90-min IV infusion, Cycle 1 Day 8, read-out: Time to peak plasma concentration, Mean (SD)): 21.6 min | Tmax ([3]; human, iv, 2.75 mg/kg, Cohort 4: 2.75 mg/kg, N = 6, 90-min IV infusion, Cycle 1 Day 8, read-out: Time to peak plasma concentration, Median): 15 min | AUC(0-t) ([3]; human, iv, 2.75 mg/kg, Cohort 4: 2.75 mg/kg, N = 6, 90-min IV infusion, Cycle 1 Day 10, read-out: AUCtau, Mean (SD)): 274 ng·h/mL | AUC(0-t) ([3]; human, iv, 2.75 mg/kg, Cohort 4: 2.75 mg/kg, N = 6, 90-min IV infusion, Cycle 1 Day 10, read-out: AUCtau, Median): 192 ng·h/mL | Cmax ([3]; human, iv, 2.75 mg/kg, Cohort 4: 2.75 mg/kg, N = 6, 90-min IV infusion, Cycle 1 Day 10, read-out: Peak plasma concentration, Mean (SD)): 290 ng/mL | Cmax ([3]; human, iv, 2.75 mg/kg, Cohort 4: 2.75 mg/kg, N = 6, 90-min IV infusion, Cycle 1 Day 10, read-out: Peak plasma concentration, Median): 232 ng/mL | Tmax ([3]; human, iv, 2.75 mg/kg, Cohort 4: 2.75 mg/kg, N = 6, 90-min IV infusion, Cycle 1 Day 10, read-out: Time to peak plasma concentration, Mean (SD)): 36.6 min | Tmax ([3]; human, iv, 2.75 mg/kg, Cohort 4: 2.75 mg/kg, N = 6, 90-min IV infusion, Cycle 1 Day 10, read-out: Time to peak plasma concentration, Median): 30 min
